Data published in US10508086B2 (CANCER RESEARCH TECHNOLOGY LIMITED, priority 2014, dated 2019).
pEC50: −log10 of the molar value.

target: Human Full Length PARG (Homo sapiens (Human), UniProt Q86W56); experiment: PARG in vitro enzyme assay (TR-FRET); type: biochemical; conditions: read-out: PARG_EC50_ENZYME
Procedure: PARG In vitro assays were conducted in a total volume of 15 ul in a standard 384 well format. 5 ul of Human Full Length PARG (Produced internally by Astra Zeneca), used at a final reaction concentration of […], was added to 5 ul of Ribosylated PARP substrate (also produced internally by Astra Zeneca) at final reaction concentration of 4.5 nM in assay buffer (50 mM Tris pH7.4, 0.1 mg/ml BSA, 3 mM EDTA, 0.4 mM EGTA, 1 mM DTT, 0.01% Tween 20, 50 mM KCl). The reaction was incubated at room temperature for 10 minutes and then 5 ul detection reagent was added. Detection Reagent consists of 42 nM MAb Anti-6HIS XL665 (CisBio: 61 HISXLB) and 2.25 nM Streptavidin Europium Cryptate (CisBio: 610SAKLB), both at 3× working stock concentrations (final concentrations of 14 nM and 0.75 nM respectively), in a detection buffer of 50 mM Tris pH7.4, BSA at 0.1 mg/ml and KF at 100 mM. Following incubation at room temperature for 60 minutes in the dark, TR-FRET signal was measured at Ex 340 and Em 665 and Em 620. A ratio was calculated as Em665/EM620×104 for each well and used to calculate percent inhibition for test compounds.

Sequence of Human Full Length PARG (Q86W56 whole entry): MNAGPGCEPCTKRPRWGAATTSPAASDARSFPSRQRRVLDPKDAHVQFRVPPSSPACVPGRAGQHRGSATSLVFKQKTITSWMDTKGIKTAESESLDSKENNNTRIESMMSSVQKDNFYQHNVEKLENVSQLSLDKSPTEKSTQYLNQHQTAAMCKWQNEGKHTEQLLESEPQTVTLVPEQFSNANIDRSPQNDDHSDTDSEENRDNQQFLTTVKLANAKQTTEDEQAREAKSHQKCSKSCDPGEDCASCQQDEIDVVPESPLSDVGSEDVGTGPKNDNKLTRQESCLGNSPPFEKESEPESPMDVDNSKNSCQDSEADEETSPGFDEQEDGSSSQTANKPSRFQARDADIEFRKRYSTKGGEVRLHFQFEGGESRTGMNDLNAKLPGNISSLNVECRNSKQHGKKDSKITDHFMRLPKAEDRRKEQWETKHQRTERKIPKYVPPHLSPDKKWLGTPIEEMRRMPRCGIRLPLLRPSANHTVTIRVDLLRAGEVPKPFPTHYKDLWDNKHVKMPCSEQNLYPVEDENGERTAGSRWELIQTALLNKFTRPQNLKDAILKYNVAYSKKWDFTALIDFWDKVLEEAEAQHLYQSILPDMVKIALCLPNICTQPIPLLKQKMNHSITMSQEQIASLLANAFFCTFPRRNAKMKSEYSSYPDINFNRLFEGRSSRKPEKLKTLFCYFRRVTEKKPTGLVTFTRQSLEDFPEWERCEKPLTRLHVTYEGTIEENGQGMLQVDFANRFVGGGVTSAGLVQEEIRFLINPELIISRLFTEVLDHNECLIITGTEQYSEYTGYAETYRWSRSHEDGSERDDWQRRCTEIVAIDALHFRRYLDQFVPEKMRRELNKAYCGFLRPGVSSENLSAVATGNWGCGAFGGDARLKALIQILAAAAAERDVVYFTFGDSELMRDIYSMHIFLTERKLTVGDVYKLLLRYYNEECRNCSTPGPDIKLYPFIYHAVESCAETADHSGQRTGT

Compared with Cc1ccc(Cn2c(=O)n(C)c3cc(S(=O)(=O)NC4(C)CC4)ccc32)cc1 [Example 34], Cn1c(=O)n(Cc2ccc(Cl)cc2)c2ccc(S(=O)(=O)NC3(C)CC3)cc21 [Example 39] is 0.22 log units higher in pEC50: 5.21 for the first, 5.43 for the second.

First: Cc1nnc(-n2c(=O)n(CCN(C)C)c3ccc(S(=O)(=O)NC4(C)CC4)cc32)o1 [Example 137]
Second: Cc1nnc(-n2c(=O)n(CCCN(C)C)c3ccc(S(=O)(=O)NC4(C)CC4)cc32)o1 [Example 133]
The pEC50 of the first is 0.31 log units lower: 5.64 for the first, 5.95 for the second. The second is the more potent here.

Cn1c(=O)n(CC(C)(C)C)c2ccc(S(=O)(=O)NC3(C)CC3)cc21 [Example 15] and Cn1c(=O)n(CC2CC2)c2ccc(S(=O)(=O)NC3(C)CC3)cc21 [Example 2] are within 0.2 log units of each other in pEC50: 5.18 for the first, 5.30 for the second.

CNC(=O)n1c(=O)n(C)c2ccc(S(=O)(=O)NC3(C)CC3)cc21 [Example 55] and CCNC(=O)n1c(=O)n(C)c2ccc(S(=O)(=O)NC3(C)CC3)cc21 [Example 32] are within 0.2 log units of each other in pEC50: 5.15 for the first, 5.16 for the second.

Cn1c(=O)n(Cc2c(F)cccc2F)c2ccc(S(=O)(=O)NC3(C)CC3)cc21 [Example 47] and Cn1c(=O)n(Cc2cc(F)cc(F)c2)c2ccc(S(=O)(=O)NC3(C)CC3)cc21 [Example 51] are within 0.2 log units of each other in pEC50: 5.24 for the first, 5.28 for the second.

First: Cn1c(=O)n(CC2(C)COC2)c2ccc(S(=O)(=O)NC3(C)CC3)cc21 [Example 10]
Second: Cn1c(=O)n(CC2CCC2)c2ccc(S(=O)(=O)NC3(C)CC3)cc21 [Example 11]
The pEC50 of the first is 0.26 log units lower: 5.07 for the first, 5.33 for the second.

Cn1c(=O)n(-c2ccsc2)c2cc(S(=O)(=O)NC3(C)CC3)ccc21 [Example 26] and Cn1c(=O)n(-c2ccccc2)c2ccc(S(=O)(=O)NC3(C)CC3)cc21 [Example 57] are within 0.2 log units of each other in pEC50: 5.16 for the first, 5.25 for the second.

Going from CC1(NS(=O)(=O)c2ccc3c(c2)n(-c2ccccc2)c(=O)n3CC2CC2)CC1 [Example 4] to Cn1c(=O)n(Cc2ccccc2)c2ccc(S(=O)(=O)NC3(C)CC3)cc21 [Example 3], the pEC50 falls from 5.54 to 5.08 (0.46 log units).

First: Cc1nc(C)c(Cn2c(=O)n(-c3cnsc3)c3cc(S(=O)(=O)NC4(C)CC4)ccc32)s1 [Example 93]
Second: Cc1nc(C)c(Cn2c(=O)n(-c3cscn3)c3cc(S(=O)(=O)NC4(C)CC4)ccc32)s1 [Example 95]
The pEC50 of the first is 0.26 log units lower: 5.87 for the first, 6.13 for the second.

First: CCOC(=O)n1c(=O)n(Cc2ccc(F)cc2)c2ccc(S(=O)(=O)NC3(C)CC3)cc21 [Example 75]
Second: Cn1c(=O)n(Cc2ccc(F)cc2)c2ccc(S(=O)(=O)NC3(C)CC3)cc21 [Example 42]
The pEC50 of the first is 0.40 log units higher: 6.03 for the first, 5.63 for the second. The first is the more potent here.

First: Cc1nnc(-n2c(=O)n(CCN3CCOCC3)c3ccc(S(=O)(=O)NC4(C)CC4)cc32)o1 [Example 141]
Second: Cc1nnc(-n2c(=O)n(CCN3CCCC3)c3ccc(S(=O)(=O)NC4(C)CC4)cc32)o1 [Example 142]
The pEC50 of the first is 0.53 log units higher: 5.95 for the first, 5.42 for the second.

Cn1c(=O)n(Cc2cccnc2)c2ccc(S(=O)(=O)NC3(C)CC3)cc21 [Example 5] and Cn1c(=O)n(Cc2ccncc2)c2ccc(S(=O)(=O)NC3(C)CC3)cc21 [Example 13] are within 0.2 log units of each other in pEC50: 5.17 for the first, 5.15 for the second.

Cc1nnc(-n2c(=O)n(C)c3c(C(F)(F)F)cc(S(=O)(=O)NC4(C)CC4)cc32)s1 [Example 123, 1-Methyl-N-(1-methylcyclopropyl)-3-(5-methyl-1,3,4-thiadiazol-2-yl)-2-oxo-7-(trifluoromethyl)benzimidazole-5-sulfonamide] and Cc1nnc(-n2c(=O)n(C)c3c(F)cc(S(=O)(=O)NC4(C)CC4)cc32)s1 [Example 114, 7-Fluoro-1-methyl-N-(1-methylcyclopropyl)-3-(5-methyl-1,3,4-thiadiazol-2-yl)-2-oxo-benzimidazole-5-sulfonamide] are within 0.2 log units of each other in pEC50: 6.13 for the first, 6.17 for the second.

First: CC1(NS(=O)(=O)c2ccc3c(c2)N(C(=O)CN2CCNC2=O)CC3)CC1 [Example 21, N-(1-Methylcyclopropyl)-1-[2-(2-oxoimidazolidin-1-yl)acetyl]indoline-6-sulfonamide]
Second: CCOC(=O)n1c(=O)n(C)c2ccc(S(=O)(=O)NC3(C)CC3)cc21 [Example 66]
The pEC50 of the first is 0.59 log units lower: 5.28 for the first, 5.87 for the second.

First: Cc1nnc(-n2c(=O)[nH]c3ccc(S(=O)(=O)NC4(C)CC4)cc32)o1 [Example 94, N-(1-Methylcyclopropyl)-3-(5-methyl-1,3,4-oxadiazol-2-yl)-2-oxo-1H-benzimidazole-5-sulfonamide]
Second: Cc1nnc(-n2c(=O)[nH]c3ccc(S(=O)(=O)NC4(C)CC4)cc32)s1 [Example 80, N-(1-Methylcyclopropyl)-3-(5-methyl-1,3,4-thiadiazol-2-yl)-2-oxo-1H-benzimidazole-5-sulfonamide]
The pEC50 of the first is 0.30 log units lower: 5.84 for the first, 6.14 for the second.

Cc1cccc(Cn2c(=O)n(C)c3cc(S(=O)(=O)NC4(C)CC4)ccc32)c1 [Example 33] and COc1cccc(Cn2c(=O)n(C)c3cc(S(=O)(=O)NC4(C)CC4)ccc32)c1 [Example 36] are within 0.2 log units of each other in pEC50: 5.20 for the first, 5.21 for the second.

Going from Cc1nnc(-n2c(CCN)nc3ccc(S(=O)(=O)NC4(C)CC4)cc32)s1 [Example 125] to Cc1nnc(-n2c(C)nc3ccc(S(=O)(=O)NC4(C)CC4)cc32)s1 [Example 122], the pEC50 rises from 5.59 to 5.82 (0.23 log units). The second is the more potent here.

Compared with Cc1nnc(-n2cc(CC3CC3)c3ccc(S(=O)(=O)NC4(C)CC4)cc32)s1 [Example 128, 3-(Cyclopropylmethyl)-N-(1-methylcyclopropyl)-1-(5-methyl-1,3,4-thiadiazol-2-yl)indole-6-sulfonamide], CC(=O)c1cn(-c2nnc(C)s2)c2cc(S(=O)(=O)NC3(C)CC3)ccc12 [Example 144, 3-Acetyl-N-(1-methylcyclopropyl)-1-(5-methyl-1,3,4-thiadiazol-2-yl)indole-6-sulfonamide] is 0.55 log units higher in pEC50: 5.68 for the first, 6.23 for the second. The second is the more potent here.

Compared with Cc1nnc(-n2cc(Cc3ccccc3)c3ccc(S(=O)(=O)NC4(C)CC4)cc32)s1 [Example 126, 3-Benzyl-N-(1-methylcyclopropyl)-1-(5-methyl-1,3,4-thiadiazol-2-yl)indole-6-sulfonamide], Cc1nnc(-n2ccc3ccc(S(=O)(=O)NC4(C)CC4)cc32)s1 [Example 115, N-(1-Methylcyclopropyl)-1-(5-methyl-1,3,4-thiadiazol-2-yl)indole-6-sulfonamide] is 0.26 log units higher in pEC50: 5.37 for the first, 5.63 for the second.

Going from Cn1c(=O)n(CC2CCCCC2)c2ccc(S(=O)(=O)NC3(C)CC3)cc21 [Example 12] to Cn1c(=O)n(CC2CCCC2)c2ccc(S(=O)(=O)NC3(C)CC3)cc21 [Example 16], the pEC50 rises from 5.08 to 5.47 (0.39 log units). The second is the more potent here.

Cn1c(=O)n(C)c2cc(S(=O)(=O)NC3(C)CC3)c(F)cc21 [Example 56, 6-Fluoro-1,3-dimethyl-N-(1-methylcyclopropyl)-2-oxo-benzimidazole-5-sulfonamide] and Cn1ccc(Cn2c(=O)n(C)c3cc(S(=O)(=O)NC4(C)CC4)ccc32)n1 [Example 23] are within 0.2 log units of each other in pEC50: 5.08 for the first, 5.05 for the second.

Cc1nnc(-n2c(=O)n(CCC(N)=O)c3ccc(S(=O)(=O)NC4(C)CC4)cc32)o1 [Example 151] and COCCn1c(=O)n(-c2nnc(C)o2)c2cc(S(=O)(=O)NC3(C)CC3)ccc21 [Example 134] are within 0.2 log units of each other in pEC50: 5.94 for the first, 6.04 for the second.

Cc1nc(C)c(Cn2c(=O)n(-c3cccnn3)c3cc(S(=O)(=O)NC4(C)CC4)ccc32)s1 [Example 109] and Cc1nc(C)c(Cn2c(=O)n(C3=CCCC3)c3cc(S(=O)(=O)NC4(C)CC4)ccc32)s1 [Example 113] are within 0.2 log units of each other in pEC50: 6.06 for the first, 6.20 for the second.

Cn1c(=O)n(Cc2ccc(C#N)c(F)c2)c2ccc(S(=O)(=O)NC3(C)CC3)cc21 [Example 58] and Cn1c(=O)n(Cc2ccccc2C#N)c2ccc(S(=O)(=O)NC3(C)CC3)cc21 [Example 43] are within 0.2 log units of each other in pEC50: 5.33 for the first, 5.28 for the second.

First: Cc1nnc(-n2c(=O)n(CCN3CCCCC3)c3ccc(S(=O)(=O)NC4(C)CC4)cc32)o1 [Example 140]
Second: Cc1nnc(-n2c(=O)n(CC3CCCN(C)C3)c3ccc(S(=O)(=O)NC4(C)CC4)cc32)o1 (stereo not drawn) [Example 139]
The pEC50 of the first is 0.23 log units lower: 5.71 for the first, 5.94 for the second. The second is the more potent here.

First: Cc1nnc(-n2c(=O)n(C)c3ccc(S(=O)(=O)NC4(C)CC4)cc32)s1 [Example 68]
Second: CNC(=O)CCc1cnc(-n2c(=O)n(C)c3ccc(S(=O)(=O)NC4(C)CC4)cc32)s1 [Example 74, N-methyl-3-[2-[3-methyl-6-[(1-methylcyclopropyl)sulfamoyl]-2-oxo-benzimidazol-1-yl]thiazol-5-yl]propanamide]
The pEC50 of the first is 1.03 log units higher: 6.04 for the first, 5.01 for the second. The first is the more potent here.

Going from Cn1c(=O)n(C(=O)c2ccccc2)c2cc(S(=O)(=O)NC3(C)CC3)ccc21 [Example 27] to Cc1ccc(C(=O)n2c(=O)n(C)c3ccc(S(=O)(=O)NC4(C)CC4)cc32)cc1 [Example 29], the pEC50 falls from 6.03 to 5.35 (0.68 log units).

Going from CC1(NS(=O)(=O)c2ccc3c(c2)n(-c2nccs2)c(=O)n3Cc2ccc(F)cc2)CC1 [Example 76] to Cn1c(=O)n(Cc2cc(Cl)cc(Cl)c2)c2ccc(S(=O)(=O)NC3(C)CC3)cc21 [Example 48], the pEC50 falls from 5.57 to 5.11 (0.46 log units).

CN(C)C(=O)CCc1cnc(-n2c(=O)n(C)c3ccc(S(=O)(=O)NC4(C)CC4)cc32)s1 [Example 71, N, N-Dimethyl-3-[2-[3-methyl-6-[(1-methylcyclopropyl)sulfamoyl]-2-oxo-benzimidazol-1-yl]thiazol-5-yl]propanamide] and CNC(=O)c1noc(Cn2c(=O)n(C)c3cc(S(=O)(=O)NC4(C)CC4)ccc32)n1 [Example 60] are within 0.2 log units of each other in pEC50: 5.15 for the first, 5.22 for the second.

First: COCCCn1c(=O)n(-c2nnc(C)o2)c2cc(S(=O)(=O)NC3(C)CC3)ccc21 [Example 150]
Second: COc1cc(Cn2c(=O)n(C)c3cc(S(=O)(=O)NC4(C)CC4)ccc32)cc(OC)c1 [Example 50]
The pEC50 of the first is 0.73 log units higher: 6.04 for the first, 5.31 for the second.
